MIC data for two compounds are collected here from publication PMC9610943, “Truncated Pleurocidin Derivative with High Pepsin Hydrolysis Resistance to Combat Multidrug-Resistant Pathogens” (Pharmaceutics, 2022).

The subject of one assay is E. coli G6 (blaNDM-5). Kind of assay: microbe, parasite or virus in culture. In kind it is cell-based. Particulars: E. coli G6 (blaNDM-5), micro-broth dilution CLSI 2018, MHB, 37 °C, 16 to 18 h. As for the experimental part: (§1) S. aureus ATCC 29213, E. coli ATCC 25922, S. enteritidis ATCC 13076 and A. baumannii ATCC 19609 were obtained from the American Type Culture Collection (ATCC). The remaining strains used in the experiment were all preserved strains in our laboratory. All strains were cultured in nutrient broth overnight to the logarithmic phase at 37 °C prior to each experiment.
(§2) The MICs of all drugs were determined by micro-broth dilution method according to CLSI 2018 guidelines. Briefly, a single colony of the bacterial strain was transferred to 1 mL of Mueller Hilton broth (MHB) and overnight at 37 °C and then 10 μL were cultured in a new 1 mL medium for 4 to 6 h, and then the bacterial culture at the logarithmic phase was diluted to 1 × 10^6 CFUs/mL. The assay was performed by adding 100 μL of each peptide solution at various concentrations (0.25 to 128 μg/mL) and 100 μL of diluted bacterial culture to different wells of a 96-well microtiter plate (Corning, NY, USA). After incubation at 37 °C for 16 to 18 h and then read its MIC value. MIC value is defined as the lowest drug concentration without visible bacteria.
(In general: In broth dilution the organism is exposed to a series of concentrations in liquid medium.)

The test system of assay [1] is E. coli B2 (blaNDM-5 + mcr-1). The assay can be described thus: microbe, parasite or virus in culture. In kind it is cell-based. Particulars: E. coli B2 (blaNDM-5 + mcr-1), micro-broth dilution CLSI 2018, MHB, 37 °C, 16 to 18 h. As for the experimental part:
as §1, §2

The subject of assay [2] is P. aeruginosa (VIM + tmexCD1-torJ1). Kind of assay: microbe, parasite or virus in culture. The assay is classed as cell-based. On the procedure: as §1, §2
In a further assay the test system is E. coli G92 (mcr-1). The assay can be described thus: microbe, parasite or virus in culture. The assay is classed as cell-based. Particulars: E. coli G92 (mcr-1), micro-broth dilution CLSI 2018, MHB, 37 °C, 16 to 18 h. As for the experimental part:
as §1, §2

Assay [3] deals with S. enteritidis ATCC 13076. Kind of assay: microbe, parasite or virus in culture. In kind it is cell-based. On the procedure:
as §1, §2

The test system of a further assay is P. aeruginosa PA14. The assay can be described thus: microbe, parasite or virus in culture. The assay is classed as cell-based. As for the experimental part:
as §1, §2

Assay [4] concerns E. faecalis A4 (VRE, VanA). The assay can be described thus: microbe, parasite or virus in culture. The assay is classed as cell-based. As for the experimental part:
as §1, §2

For the next assay, the system named is S. aureus G16 (RIF^R). Kind of assay: microbe, parasite or virus in culture. The assay is classed as cell-based. As for the experimental part: as §1, §2
In a further assay the test system is A. baumannii ATCC 19609. The assay can be described thus: microbe, parasite or virus in culture. The assay is classed as cell-based. Particulars: A. baumannii ATCC 19609, micro-broth dilution CLSI 2018, MHB, 37 °C, 16 to 18 h. On the procedure:
as §1, §2

For a further assay, the system named is E. coli ATCC 25922. The assay can be described thus: microbe, parasite or virus in culture. In kind it is cell-based. As for the experimental part: as §1, §2
Another assay deals with E. coli C3 (blaNDM-1). Kind of assay: microbe, parasite or virus in culture. The assay is classed as cell-based. Particulars: E. coli C3 (blaNDM-1), micro-broth dilution CLSI 2018, MHB, 37 °C, 16 to 18 h. As for the experimental part:
as §1, §2

Another assay relates to E. coli B3-1 (tet(X4)). Kind of assay: microbe, parasite or virus in culture. The settings on record: E. coli B3-1 (tet(X4)), micro-broth dilution CLSI 2018, MHB, 37 °C, 16 to 18 h. In kind it is cell-based. As for the experimental part:
as §1, §2

The next assay has as its system E. coli CP131 (mcr-3). Kind of assay: microbe, parasite or virus in culture. Particulars: E. coli CP131 (mcr-3), micro-broth dilution CLSI 2018, MHB, 37 °C, 16 to 18 h. The assay is classed as cell-based. On the procedure:
as §1, §2

Assay [5] deals with S. aureus 215 (cfr + LZD^R). The assay can be described thus: microbe, parasite or virus in culture. In kind it is cell-based. On the procedure: as §1, §2
A further assay concerns S. aureus ATCC 29213. The assay can be described thus: microbe, parasite or virus in culture. In kind it is cell-based. On the procedure: as §1, §2
The next assay concerns E. coli 1F28 (tet(X4)). Kind of assay: microbe, parasite or virus in culture. In kind it is cell-based. The settings on record: E. coli 1F28 (tet(X4)), micro-broth dilution CLSI 2018, MHB, 37 °C, 16 to 18 h. As for the experimental part:
as §1, §2

Assay [6] deals with P. cibarius HNCF44W (blaNDM-1+ tet(X6)). Kind of assay: organism not typed. Particulars: P. cibarius HNCF44W (blaNDM-1+ tet(X6)), micro-broth dilution CLSI 2018, MHB, 37 °C, 16 to 18 h. In kind it is cell-based. On the procedure: as §1, §2
The test system of a further assay is MRSA 1530. Kind of assay: microbe, parasite or virus in culture. The assay is classed as cell-based, Staphylococcus aureus. The settings on record: MRSA 1530, micro-broth dilution CLSI 2018, MHB, 37 °C, 16 to 18 h. On the procedure: as §1, §2
The subject of another assay is MRSA T144. The assay can be described thus: microbe, parasite or virus in culture. Particulars: MRSA T144, micro-broth dilution CLSI 2018, MHB, 37 °C, 16 to 18 h. In kind it is cell-based, Staphylococcus aureus. On the procedure: as §1, §2
The mark [7] stands for this setting: Escherichia coli, read-out: MIC.
The mark [8] stands for this setting: Staphylococcus aureus, read-out: MIC.

Values after ≈ are worked out from the molar mass of the structure shown. Where two headings read alike, the source gives them in different places. Where no end group is shown, it is not given here.

With `CN(C)c1cc(NC(=O)CNC(C)(C)C)c(O)c2c1C[C@H]1C[C@H]3[C@H](N(C)C)C(O)=C(C(N)=O)C(=O)[C@@]3(O)C(O)=C1C2=O` [Tig, tigecycline, reference compound], the MIC was 2 µg/mL (≈ 3.41 µM) in the assay with E. coli G6 (blaNDM-5) (setting [7]); 2 µg/mL in [1] (setting [7]); under 0.0625 µg/mL in [2] (Pseudomonas aeruginosa); 4 µg/mL (≈ 6.83 µM) in the assay with E. coli G92 (mcr-1) (setting [7]); 0.125 µg/mL (≈ 0.213 µM) in [3] (Salmonella enterica); under 0.0625 µg/mL against P. aeruginosa PA14 (Pseudomonas aeruginosa, PA14). Moreover, the MIC was under 0.0625 µg/mL in assay [4] (Enterococcus faecalis, VRE); under 0.0625 µg/mL in the assay with S. aureus G16 (RIF^R) (Staphylococcus aureus); 0.25 µg/mL (≈ 0.427 µM) with A. baumannii ATCC 19609 (Acinetobacter baumannii, ATCC19609, read-out: MIC); 0.125 µg/mL (≈ 0.213 µM) in the assay on E. coli ATCC 25922 (Escherichia coli, ATCC25922); 2 µg/mL (≈ 3.41 µM) in the assay with E. coli C3 (blaNDM-1) (setting [7]); 32 µg/mL (≈ 54.6 µM) in the assay with E. coli B3-1 (tet(X4)) (setting [7]). The MIC in the assay with E. coli CP131 (mcr-3) (setting [7]) was determined as 2 µg/mL (≈ 3.41 µM); in [5] (Staphylococcus aureus), 0.25 µg/mL (≈ 0.427 µM); against S. aureus ATCC 29213 (Staphylococcus aureus, ATCC29213), 0.125 µg/mL (≈ 0.213 µM); in the assay on E. coli 1F28 (tet(X4)) (setting [7]), 16 µg/mL (≈ 27.3 µM); in assay [6] (read-out: MIC) it was 64 µg/mL (≈ 109 µM); in the assay with MRSA 1530 (setting [8]), 1 µg/mL (≈ 1.71 µM). Besides, the MIC in the assay on MRSA T144 (setting [8]) is 0.25 µg/mL (≈ 0.427 µM).
For GWGSFFKKAAHVGK [GK-1], the MIC is on record as over 128 µg/mL in the assay with E. coli G6 (blaNDM-5); over 128 µg/mL in [1]; over 128 µg/mL in assay [2] (P. aeruginosa (VIM + tmexCD1-torJ1), micro-broth dilution CLSI 2018, MHB, 37 °C, 16 to 18 h); over 128 µg/mL against E. coli G92 (mcr-1); over 128 µg/mL in assay [3] (S. enteritidis ATCC 13076, micro-broth dilution CLSI 2018, MHB, 37 °C, 16 to 18 h); over 128 µg/mL against P. aeruginosa PA14 (P. aeruginosa PA14, micro-broth dilution CLSI 2018, MHB, 37 °C, 16 to 18 h). Besides, the MIC is reported as over 128 µg/mL in assay [4] (E. faecalis A4 (VRE, VanA), micro-broth dilution CLSI 2018, MHB, 37 °C, 16 to 18 h); over 128 µg/mL against S. aureus G16 (RIF^R) (S. aureus G16 (RIF^R), micro-broth dilution CLSI 2018, MHB, 37 °C, 16 to 18 h); over 128 µg/mL against A. baumannii ATCC 19609; over 128 µg/mL in the assay on E. coli ATCC 25922 (E. coli ATCC 25922, micro-broth dilution CLSI 2018, MHB, 37 °C, 16 to 18 h); over 128 µg/mL in the assay on E. coli C3 (blaNDM-1); over 128 µg/mL in the assay on E. coli B3-1 (tet(X4)). Further, the MIC is listed as over 128 µg/mL against E. coli CP131 (mcr-3); over 128 µg/mL in assay [5] (S. aureus 215 (cfr + LZD^R), micro-broth dilution CLSI 2018, MHB, 37 °C, 16 to 18 h); over 128 µg/mL against S. aureus ATCC 29213 (S. aureus ATCC 29213, micro-broth dilution CLSI 2018, MHB, 37 °C, 16 to 18 h); over 128 µg/mL in the assay with E. coli 1F28 (tet(X4)); over 128 µg/mL in [6]; over 128 µg/mL with MRSA 1530. Moreover, the MIC in the assay with MRSA T144 was over 128 µg/mL.
